Test [1] relates to C57BL/6 mice. Nature of the test: Air pouch model (carrageenan-induced acute inflammation). Format: in vivo. The arrangement: key to Inflammation score / Edema score: 1 = mild, 2 = moderate, 3 = severe. Here is the method:
Healthy adult male C57BL/6 mice weighing between 20 and 30 g were supplied by Changzhou Cvens Experimental Animal Co. Ltd. Prior to any experiments being conducted, the mice were housed under standardized conditions (at a constant temperature or 22±2° C., with alternating 12-hour periods of light and darkness), and were fed on a standard mouse diet with water, for about a week. The mice were randomly divided into 9 groups as described in Table 4, with 7 mice in each group.
General anaesthesia was induced using intraperitoneal delivery of 3% chloral hydrate (Sinopharm Chemical Reagent Co., Ltd., Shanghai, China); 1 mL/10 g of body weight). The hair of the entire dorsum was shaved and depilated one day before sterile air injection.
Air pouches were produced by subcutaneous injection of sterile air (5 mL) into the intrascapular area of the mice. After three days, another injection of air (3 mL) was performed to maintain the pouches. In order to induce acute inflammation, three days after the second injection, animals received an injection of sterile carrageenan solution (CP Kelco, Taixing, Jiangsu Province, China; 1%, 0.5 mL; produced by adding 0.1 g of carrageenan powder into a beaker containing 10 mL of 0.9% saline solution and stirring). Mice were pre-treated with test samples or vehicle 1 hour before and 23 hours after the carrageenan injection into the subcutaneous air pouch. Animals were sacrificed 24 hours after the carrageenan injection.
Skin biopsies were taken from the air pouches. A part of the biopsy was fixed in formalin (produced by adding ultra-pure water to 50 mL of a 40% formaldehyde solution (Nanchang Rain Dew Experimental Equipment Co., Ltd., Nanchang, […] Provence, China) up to a total volume of 500 mL) and analyzed by histological embedding in paraffin wax, sectioning and staining.
The histological specimens were analyzed, and an inflammation score and an edema score were estimated. The inflammation scores were estimated by observing heamatoxylin and eosin (HE) stained slices under an optical microscope. Scores (between 1 to 3 points) were given according to the perceived inflammation level (e.g. in cases where only a small amount of inflammatory cells scattered in the area: 1 point was given (mild); in cases where many inflammatory cells were observed: 2 points were given (moderate); and, in cases with diffuse infiltration: 3 points were given (severe)). A similar scoring system was employed for edema levels (3 points for most severe and 1 point for mild) after overall observation.
After conducting some preliminary experiments to validate the model, an experiment was conducted in which mice were treated by administering test samples or vehicle in accordance with Table 4 below. Compound A and Compound B were dissolved in saline at concentrations indicated in Table 4 below (L=low dose, M=medium dose, H=high dose).
Compound A and Compound B were synthesized as described in Examples 8 and 7 above, respectively. The peptide powders were stored at −20° C. prior to use. Dexamethasone (Dex) was obtained from Shanghai Aladdin Bio-Chem Technology Co., Ltd., Shanghai, China.

For test [2], the system named is C57BL/6 mice. The test can be described thus: Acute wound model (full-thickness skin wound). Format: in vivo. As to conditions: topical 50 μL/wound once daily Day 0 to Day 7; 1.65, 16.45, 164.5 μg/wound/day. Here is the method:
6-8 weeks old male C57BL/6 mice were supplied by Changzhou Cvens Experimental Animal Co. Ltd. (Changzhou, Jiangsu Province, China). Prior to any experiments being conducted, mice were housed under standardized conditions at a constant temperature of 22±2° C., with alternating 12-hour periods of light and darkness, and were fed on a standard mouse diet with water, for about a week.
General anesthesia was induced using intraperitoneal administration of 3% chloral hydrate (1 mL/10 g of body weight). The hair on the back was shaved by a baby hair shaver and depilated with cream. The skin area was wiped and sterilized with 75% alcohol twice.
A 12 mm EMS skin biopsy punch (Electron Microscopy Sciences, P.O. Box 550, 1560 Industry Road, Hatfield, PA 19440) was used to make two round wounds on the midline of the back. The two wounds were tangential and the skin between the circles was cut along the upper and lower tangents. Scissors were used to trim the wound. The full thickness of skin was removed to reach the fascia. The wound was oval shape and was left open without suture. […]
Photographs were taken of each wound every other day from Day 0. Photos were scanned into a computer, and wound areas calculated using ImageJ image analysis software (National Institute of Health).
The unhealed wound area was expressed as a percentage of the original wound area: […]

Square brackets hold non-standard residues; d marks the D form. Ends that are not written are not given here. Dopa = N[C@@H](Cc1ccc(O)c(O)c1)C(=O)O; Hyp = O=C(O)[C@@H]1C[C@@H](O)CN1

Regarding “{[(Ala-Lys-Pro-Ser-Tyr-Hyp-Hyp-Thr-DOPA-Lys)2-Lys]2-Lys}2-Lys (AKPSY[Hyp][Hyp]T[Dopa]KKKK; also: branched lysine dendrimer {[(peptide)2-Lys]2-Lys}2-Lys) [Compound B]”, in the test with C57BL/6 mice [1] (low dose 50 μg/mouse), the Edema score turned out to be 2.00, the Inflammation score is 1.83 and the “Sum of the scores” value was determined as 3.83. Moreover, in the test on C57BL/6 mice [1] (medium dose 250 μg/mouse), the Edema score came out at 2.14, the Inflammation score was 1.80 and the “Sum of the scores” value turned out to be 3.94. Besides, the “unhealed wound rate / wound healing (FIG. 1)” value in the test with C57BL/6 mice [2] is “significantly improve wound healing”.
Turning to “{[(Dopa-Ala-Lys-Pro-Ser-Tyr-Hyp-Hyp-Thr-Tyr-Lys)2-Lys]2-Lys}2-Lys ([Dopa]AKPSY[Hyp][Hyp]TYKKKK; also: branched lysine dendrimer {[(peptide)2-Lys]2-Lys}2-Lys) [Compound A]”, in the test on C57BL/6 mice [1] (low dose 50 μg/mouse), the Edema score was found to be 1.71, the Inflammation score came to 1.86 and the “Sum of the scores” value is reported as 3.57. In the test on C57BL/6 mice [1] (medium dose 250 μg/mouse), the Edema score was found to be 1.57, the Inflammation score stood at 1.57 and the “Sum of the scores” value is reported as 3.14. Besides, the “unhealed wound rate / wound healing (FIG. 1)” value in the test with C57BL/6 mice [2] is recorded as “significantly improve wound healing”.

Source of the values: patent publication US20230331792A1, “NEW MULTI-FUNCTIONAL OLIGOPEPTIDES” (ENLITISA (SHANGHAI) PHARMACEUTICAL CO., LTD., priority 2019, published 2023).
